According to patent US7645752B2, “Sulfonyl substituted 1H-indoles as ligands for the 5-hydroxytryptamine receptors” (Wyeth LLC, priority 2006, dated 2010):
Counter-ions that a name gives are not always drawn.

SMILES	melting point
CC(C)NCCc1ccc2[nH]cc(S(=O)(=O)c3ccccc3)c2c1 (as salt: hydrochloride) [Example 3, N-{2-[3-(phenylsulfonyl)-1H-indol-5-yl]ethyl}propan-2-amine]	263 °C
O=S(=O)(c1ccccc1)c1c[nH]c2ccc(CCNC3CC3)cc12 (as salt: hydrochloride) [Example 4, N-{2-[3-(phenylsulfonyl)-1H-indol-5-yl]ethyl}cyclopropanamine]	205 to 208 °C
O=S(=O)(c1ccccc1)c1c[nH]c2ccc(CCN3CCCCC3)cc12 (as salt: hydrochloride) [Example 10, 3-(phenylsulfonyl)-5-(2-piperidin-1-ylethyl)-1H-indole]	272 °C
NCCc1ccc2[nH]cc(S(=O)(=O)c3ccccc3)c2c1 (as salt: hydrochloride) [Example 12, {2-[3-(phenylsulfonyl)-1H-indol-5-yl]ethyl}amine]	200 °C
O=S(=O)(c1ccccc1)c1c[nH]c2ccc(CCN3CCNCC3)cc12 (as salt: hydrochloride) [Example 13, 3-(phenylsulfonyl)-5-(2-piperazin-1-ylethyl)-1H-indole]	220 °C
CN(C)CCc1cccc2c(S(=O)(=O)c3ccccc3)c[nH]c12 (as salt: hydrochloride) [Example 18, N,N-dimethyl-N-{2-[3-(phenylsulfonyl)-1H-indol-7-yl]ethyl}amine]	205 to 208 °C (dec.)
CC(C)NCCc1cccc2c(S(=O)(=O)c3ccccc3)c[nH]c12 (as salt: hydrochloride) [Example 21, N-{2-[3-(phenylsulfonyl)-1H-indol-7-yl]ethyl}propan-2-amine]	291 to 293 °C (dec.)
O=S(=O)(c1ccccc1)c1c[nH]c2c(CCNC3CC3)cccc12 (as salt: hydrochloride) [Example 22, N-{2-[3-(phenylsulfonyl)-1H-indol-7-yl]ethyl}cyclopropanamine]	213 to 216 °C (dec.)
CCN(C)CCc1cccc2c(S(=O)(=O)c3ccccc3)c[nH]c12 (as salt: hydrochloride) [Example 24, N-ethyl-N-methyl-N-{2-[3-(phenylsulfonyl)-1H-indol-7-yl]ethyl}amine]	215 to 218 °C (dec.)
O=S(=O)(c1ccccc1)c1c[nH]c2c(CCN3CCCCC3)cccc12 (as salt: hydrochloride) [Example 27, 3-(phenylsulfonyl)-7-(2-piperidin-1-ylethyl)-1H-indole]	231 to 233 °C
CC(C)NCCc1cccc2[nH]cc(S(=O)(=O)c3ccccc3)c12 (as salt: hydrochloride) [Example 35, N-{2-[3-(phenylsulfonyl)-1H-indol-4-yl]ethyl}propan-2-amine]	185 to 187 °C
O=S(=O)(c1ccccc1)c1c[nH]c2cccc(CCNC3CCC3)c12 (as salt: hydrochloride) [Example 37, N-{2-[3-(phenylsulfonyl)-1H-indol-4-yl]ethyl}cyclobutanamine]	95 to 103 °C
O=S(=O)(c1ccccc1)c1c[nH]c2cccc(CCNC3CCCCC3)c12 (as salt: hydrochloride) [Example 39, N-{2-[3-(phenylsulfonyl)-1H-indol-4-yl]ethyl}cyclohexanamine]	241 °C
CCN(C)CCc1cccc2[nH]cc(S(=O)(=O)c3ccccc3)c12 (as salt: hydrochloride) [Example 40, N-ethyl-N-methyl-N-{2-[3-(phenylsulfonyl)-1H-indol-4-yl]ethyl}amine]	92 to 98 °C
CCN(CC)CCc1cccc2[nH]cc(S(=O)(=O)c3ccccc3)c12 (as salt: hydrochloride) [Example 42, N,N-diethyl-N-{2-[3-(phenylsulfonyl)-1H-indol-4-yl]ethyl}amine]	77 to 83 °C
O=S(=O)(c1ccccc1)c1c[nH]c2cccc(CCN3CCCC3)c12 (as salt: hydrochloride) [Example 43, 3-(phenylsulfonyl)-4-(2-pyrrolidin-1-ylethyl)-1H-indole]	145 to 150 °C
O=S(=O)(c1ccccc1)c1c[nH]c2cccc(CCN3CCCCC3)c12 (as salt: hydrochloride) [Example 44, 3-(phenylsulfonyl)-4-(2-piperidin-1-ylethyl)-1H-indole]	200 to 205 °C
O=S(=O)(c1ccccc1)c1c[nH]c2cccc(CCN3CCOCC3)c12 (as salt: hydrochloride) [Example 45, 4-(2-morpholin-4-ylethyl)-3-(phenylsulfonyl)-1H-indole]	164 to 165 °C
CC(C)CNCCc1cccc2[nH]cc(S(=O)(=O)c3ccccc3)c12 (as salt: hydrochloride) [Example 48, N-isobutyl-N-{2-[3-(phenylsulfonyl)-1H-indol-4-yl]ethyl}amine]	220 °C

The remaining lines, values ahead:

melting point	SMILES
252 °C	O=S(=O)(c1ccccc1)c1c[nH]c2ccc(CCNC3CCCC3)cc12 (as salt: hydrochloride) [Example 5, N-{2-[3-(phenylsulfonyl)-1H-indol-5-yl]ethyl}cyclopentanamine]
215 to 220 °C	O=S(=O)(c1ccccc1)c1c[nH]c2ccc(CCNCc3ccccc3)cc12 (as salt: hydrochloride) [Example 6, N-benzyl-N-{2-[3-(phenylsulfonyl)-1H-indol-5-yl]ethyl}amine]
203 °C	CCN(C)CCc1ccc2[nH]cc(S(=O)(=O)c3ccccc3)c2c1 (as salt: hydrochloride) [Example 7, N-ethyl-N-methyl-N-{2-[3-(phenylsulfonyl)-1H-indol-5-yl]ethyl}amine]
193 to 195 °C	CCN(CC)CCc1ccc2[nH]cc(S(=O)(=O)c3ccccc3)c2c1 (as salt: hydrochloride) [Example 8, N,N-diethyl-N-{2-[3-(phenylsulfonyl)-1H-indol-5-yl]ethyl}amine]
230 to 232 °C	O=S(=O)(c1ccccc1)c1c[nH]c2ccc(CCN3CCCC3)cc12 (as salt: hydrochloride) [Example 9, 3-(phenylsulfonyl)-5-(2-pyrrolidin-1-ylethyl)-1H-indole]
250 to 255 °C	O=S(=O)(c1ccccc1)c1c[nH]c2ccc(CCN3CCOCC3)cc12 (as salt: hydrochloride) [Example 11, 5-(2-morpholin-4-ylethyl)-3-(phenylsulfonyl)-1H-indole]
187 to 188 °C	CNCCc1cccc2c(S(=O)(=O)c3ccccc3)c[nH]c12 (as salt: hydrochloride) [Example 19, N-methyl-N-{2-[3-(phenylsulfonyl)-1H-indol-7-yl]ethyl}amine]
260 to 262 °C	CCCNCCc1cccc2c(S(=O)(=O)c3ccccc3)c[nH]c12 (as salt: hydrochloride) [Example 20, N-{2-[3-(phenylsulfonyl)-1H-indol-7-yl]ethyl}-N-propylamine]
255 to 256 °C (dec.)	O=S(=O)(c1ccccc1)c1c[nH]c2c(CCNC3CCCC3)cccc12 (as salt: hydrochloride) [Example 23, N-{2-[3-(phenylsulfonyl)-1H-indol-7-yl]ethyl}cyclopentanamine]
165 to 166 °C (dec.)	CCN(CC)CCc1cccc2c(S(=O)(=O)c3ccccc3)c[nH]c12 (as salt: hydrochloride) [Example 25, N,N-diethyl-N-{2-[3-(phenylsulfonyl)-1H-indol-7-yl]ethyl}amine]
250 to 252 °C (dec.)	O=S(=O)(c1ccccc1)c1c[nH]c2c(CCN3CCCC3)cccc12 (as salt: hydrochloride) [Example 26, 3-(phenylsulfonyl)-7-(2-pyrrolidin-1-ylethyl)-1H-indole]
246 to 248 °C (dec.)	O=S(=O)(c1ccccc1)c1c[nH]c2c(CCN3CCOCC3)cccc12 (as salt: hydrochloride) [Example 28, 7-(2-morpholin-4-ylethyl)-3-(phenylsulfonyl)-1H-indole]
190 °C	O=S(=O)(c1ccccc1)c1c[nH]c2c(CCN3CCNCC3)cccc12 (as salt: hydrochloride) [Example 30, 3-(phenylsulfonyl)-7-(2-piperazin-1-ylethyl)-1H-indole]
122 to 126 °C	CN(C)CCc1cccc2[nH]cc(S(=O)(=O)c3ccccc3)c12 (as salt: hydrochloride) [Example 31, N,N-dimethyl-N-{2-[3-(phenylsulfonyl)-1H-indol-4-yl]ethyl}amine]
168 to 170 °C	CNCCc1cccc2[nH]cc(S(=O)(=O)c3ccccc3)c12 (as salt: hydrochloride) [Example 32, N-methyl-N-{2-[3-(phenylsulfonyl)-1H-indol-4-yl]ethyl}amine]
225 to 228 °C	CCNCCc1cccc2[nH]cc(S(=O)(=O)c3ccccc3)c12 (as salt: hydrochloride) [Example 33, N-ethyl-N-{2-[3-(phenylsulfonyl)-1H-indol-4-yl]ethyl}amine]
217 °C	CCCNCCc1cccc2[nH]cc(S(=O)(=O)c3ccccc3)c12 (as salt: hydrochloride) [Example 34, N-{2-[3-(phenylsulfonyl)-1H-indol-4-yl]ethyl}-N-propylamine]
145 to 150 °C	O=S(=O)(c1ccccc1)c1c[nH]c2cccc(CCNC3CC3)c12 (as salt: hydrochloride) [Example 36, N-{2-[3-(phenylsulfonyl)-1H-indol-4-yl]ethyl}cyclopropanamine]
132 to 140 °C	CN(CCc1cccc2[nH]cc(S(=O)(=O)c3ccccc3)c12)C1CCCCC1 (as salt: hydrochloride) [Example 41, N-cyclohexyl-N-methyl-N-{2-[3-(phenylsulfonyl)-1H-indol-4-yl]ethyl}amine]
275 °C	CC(NCCc1cccc2[nH]cc(S(=O)(=O)c3ccccc3)c12)C(C)(C)C (stereo not shown) (as salt: hydrochloride) [Example 46, N-{2-[3-(phenylsulfonyl)-1H-indol-4-yl]ethyl}-N-(1,2,2-trimethylpropyl)amine]
172 °C	O=S(=O)(c1ccccc1)c1c[nH]c2cccc(CCNCc3ccccc3)c12 (as salt: hydrochloride) [Example 47, N-benzyl-N-{2-[3-(phenylsulfonyl)-1H-indol-4-yl]ethyl}amine]
